Test results taken from patent US20230190774A1, “METHOD OF USING SUBSTRATES OF AKR1Bl/AKR1B10 AS ANTI-CANCER DRUGS” (Beijing Normal University Hong Kong Baptist University …, priority 2015, published 2023).
Entries after “also recorded” stand apart in the source; their conditions may differ.

Columns and labels:
glycolysis = conditions: background statement; cited from earlier work
CaCo2 cells [1] = assay: Cytotoxicity assay (cell survival rate, MTT); type: cell-based; conditions: for Protection against 2DG toxicity by AKR1Bs inhibitor (survival rate): inhibitor 24 h, then 2DG (20 mM) for additional 48 h
Method: (§1) HepG2 cells, SKOV3 cells, HCT116 cells and CaCo2 cells were cultured in DMEM medium, SW480 cells in 1640 medium, and HT29 cells in McCoy’s 5A medium. All cell culture media were supplemented with 10% FBS, 1% PSN, and cells were cultured in a humidified incubator containing 5% CO2 at 37° C. In cytotoxicity assays, cells were seeded at 1 × 10^5 cells/well in 96 well plates with full medium. In GSH assay and Western blot analysis, cells were seeded at 3× 10^6 cells/well in 6 well plates.
(§2) The AKR1Bs substrates’ cytotoxicity was assessed by cell survival rate using MTT assay. After the cells were treated with the substrates for the length of time indicated, MTT was added to a final concentration of 0.5 mg/ml in each well of a 96-well plate, and the plates were incubated at 37° C. for 4 hour. Then DMSO was added to dissolve the formazan product, the amount of which is proportional to the number of live cells. The absorbance of dissolved dye was measured at 540 nm using an automatic microplate reader.

HCT116 cells [2] = assay: Cytotoxicity assay (cell survival rate, MTT); type: cell-based; conditions: for Protection against 2DG toxicity by AKR1Bs inhibitor (survival rate): inhibitor 24 h, then 2DG (20 mM) for additional 48 h
Method: as §1, §2

HepG2 cells [3] = assay: Cytotoxicity assay (cell survival rate, MTT); type: cell-based; conditions: for Protection against 2DG toxicity by AKR1Bs inhibitor (survival rate): inhibitor 24 h, then 2DG (20 mM) for additional 48 h
Method: as §1, §2

SKOV3 cells [4] = assay: Cytotoxicity assay (cell survival rate, MTT); type: cell-based; conditions: for Protection against 2DG toxicity by AKR1Bs inhibitor (survival rate): inhibitor 24 h, then 2DG (20 mM) for additional 48 h
Method: as §1, §2

CaCo2 cells [5] = assay: GSH assay of cell lysates; type: cell-based; conditions: for Restoration of GSH level in 2DG treated cells by AKR1Bs inhibitor: inhibitor (40 µM) 24 h, then 2DG (20 mM) 48 h
Method: as §1
(§3) The cells were washed in cold PBS and then scraped into 300 µL of PBS. The cells were disrupted by ultrasonicator on ice followed by centrifuged at 3500 rpm at 4° C. The supernatant was transferred to a fresh tube and used for GSH assay using GSH assay kit. The concentrations of GSH in cell lysates were determined using the standard GSH calibration curve. The GSH detection for each sample was performed at least three times.

HCT116 cells [6] = assay: GSH assay of cell lysates; type: cell-based; conditions: for Restoration of GSH level in 2DG treated cells by AKR1Bs inhibitor: inhibitor (40 µM) 24 h, then 2DG (20 mM) 48 h
Method: as §1, §3

HepG2 cells [7] = assay: GSH assay of cell lysates; type: cell-based
Method: as §1, §3

SKOV3 cells [8] = assay: GSH assay of cell lysates; type: cell-based
Method: as §1, §3

HT29 cells = assay: Cytotoxicity assay (cell survival rate, MTT); type: cell-based; conditions: substrate alone, 2DG for 72 hours
Method: as §2, with “HepG2 cells, SKOV3 cells, HCT116 cells and CaCo2 cells were cultured in DMEM medium, SW480 cells in 1640 medium, and HT29 cells in McCoy’s 5A medium. […] In cytotoxicity assays, cells were seeded at 1 × 10^5 cells/well in 96 well plates with full medium. In GSH assay and Western blot analysis, cells were seeded at 3× 10^6 cells/well in 6 well plates. The AKR1Bs” for “The AKR1Bs”

SW480 cells = assay: Cytotoxicity assay (cell survival rate, MTT); type: cell-based; conditions: substrate alone, 2DG for 72 hours
Method: as §2, with “HepG2 cells, SKOV3 cells, HCT116 cells and CaCo2 cells were cultured in DMEM medium, SW480 cells in 1640 medium, and HT29 cells in McCoy’s 5A medium. […] In cytotoxicity assays, cells were seeded at 1 × 10^5 cells/well in 96 well plates with full medium. In GSH assay and Western blot analysis, cells were seeded at 3× 10^6 cells/well in 6 well plates. The AKR1Bs” for “The AKR1Bs”

AKR1B1 [9] = target: T1, AKR1B1 (Homo sapiens, UniProt P15121); assay: Enzyme activity assay (NADPH oxidation), purified AKR1B1; type: biochemical; conditions: 20 mM substrate, pH 6.2, 30° C.
Method: (§4) Assay of AKR1B1 and AKR1B10 enzymes activities were conducted in 1 ml of the reaction mixture containing 135 mM sodium phosphate buffer (pH 6.2 for AKR1B1 or pH 7.0 for AKR1B10), 0.2 mM NADPH, 0.3 M ammonium sulfate, 2 µg purified protein and 20 mM of their substrate as indicated. The reaction mix was incubated at 30° C. for 30 minutes (min). Protein-free blank controls were included. The decrease of NADPH was monitored by spectrophotometer at 340 nm. Enzyme activity was calculated as the amount of NADPH oxidized/min/mg of protein (Shen Y et al., Chem Biol Interact. 2011, 191(1-3): 192-198).

AKR1B10 [10] = target: T2, AKR1B10 (Homo sapiens, UniProt O60218); assay: Enzyme activity assay (NADPH oxidation), purified AKR1B10; type: biochemical; conditions: 20 mM substrate, pH 7.0, 30° C.
T2 sequence (O60218 whole entry): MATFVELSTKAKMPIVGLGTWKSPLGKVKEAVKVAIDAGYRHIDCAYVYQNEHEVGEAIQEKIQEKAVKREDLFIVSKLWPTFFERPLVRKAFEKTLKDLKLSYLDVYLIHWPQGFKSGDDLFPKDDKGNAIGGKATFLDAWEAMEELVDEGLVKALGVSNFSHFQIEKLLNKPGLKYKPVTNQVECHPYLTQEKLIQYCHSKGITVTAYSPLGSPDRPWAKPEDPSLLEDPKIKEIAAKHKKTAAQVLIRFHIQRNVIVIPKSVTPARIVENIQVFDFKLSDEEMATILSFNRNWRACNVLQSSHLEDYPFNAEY
Method: as §4

AKR1B1 [11] = target: T1, AKR1B1; conditions: ND = no detectable activity or less than 32 nmol/min/mg; cited from earlier work
AKR1B10 [12] = target: T2, AKR1B10; conditions: ND = no detectable activity or less than 32 nmol/min/mg; cited from earlier work
[13] = inhibitor (40 µM) 24 h, then 2DG (20 mM) 48 h
[14] = substrate alone, 2DG for 72 hours

For `O=C[C@H](F)[C@@H](O)[C@H](O)[C@H](O)CO` [2FDG, 2-fluorodeoxy-D-glucose], the “Potency as glycolysis inhibitor relative to 2DG” value (glycolysis) is listed as “more potent glycolysis inhibitor than 2DG”.

In the case of `NC(=O)[C@@H]1C[C@]2(NC(=O)NC2=O)c2cc(F)ccc2O1` [Fidarestat], the “Protection against 2DG toxicity by AKR1Bs inhibitor (survival rate)” value (CaCo2 cells [1]) is reported as “protected”, the “Protection against 2DG toxicity by AKR1Bs inhibitor (survival rate)” value (HCT116 cells [2]) is reported as “protected” and the “Protection against 2DG toxicity by AKR1Bs inhibitor (survival rate)” value (HepG2 cells [3]) is reported as “less effective in protecting”. The “Protection against 2DG toxicity by AKR1Bs inhibitor (survival rate)” value (SKOV3 cells [4]) was “less effective in protecting”, the “Restoration of GSH level in 2DG treated cells by AKR1Bs inhibitor” value (from here on “Restoration … by AKR1Bs inhibitor”) (CaCo2 cells [5]) was “able to increase” and the “Restoration … by AKR1Bs inhibitor” value (HCT116 cells [6]) was “able to increase”.

In the case of `COc1ccc2c(C(=S)N(C)CC(=O)O)cccc2c1C(F)(F)F` [Tolrestat], the “Protection against 2DG toxicity by AKR1Bs inhibitor (survival rate)” value (CaCo2 cells [1]) is reported as “dose-dependently protected”, the “Protection against 2DG toxicity by AKR1Bs inhibitor (survival rate)” value (HCT116 cells [2]) is reported as “dose-dependently protected” and the “Protection against 2DG toxicity by AKR1Bs inhibitor (survival rate)” value (HepG2 cells [3]) is reported as “dose-dependently protected”. The “Protection against 2DG toxicity by AKR1Bs inhibitor (survival rate)” value (SKOV3 cells [4]) was “dose-dependently protected”, the “Restoration … by AKR1Bs inhibitor” value (CaCo2 cells [5]) was “significantly restored” and the “Restoration … by AKR1Bs inhibitor” value (HCT116 cells [6]) was “significantly restored”. For the same molecule, the “Restoration … by AKR1Bs inhibitor” value (HepG2 cells [7]; [13]) was “significantly restored” and the “Restoration … by AKR1Bs inhibitor” value (SKOV3 cells [8]; [13]) was “significantly restored”.

In the case of `O=CC[C@@H](O)[C@H](O)[C@H](O)CO` [2DG, 2-deoxyglucose], the “Cytotoxicity of AKR1Bs substrate (cell survival rate)” value (shortened to “Cytotoxicity of AKR1Bs substrate”) (CaCo2 cells [1]; [14]) is reported as “more sensitive to 2DG than HepG2 and SKOV3”, the “Cytotoxicity of AKR1Bs substrate” value (HCT116 cells [2]; [14]) is reported as “more sensitive to 2DG than HepG2 and SKOV3” and the “Cytotoxicity of AKR1Bs substrate” value (HepG2 cells [3]; [14]) is reported as “more sensitive; also recorded: not as efficient as glyceraldehyde and diacetyl”. The “Cytotoxicity of AKR1Bs substrate” value (SKOV3 cells [4]; [14]) was “more sensitive; also recorded: not as efficient as glyceraldehyde and diacetyl”, the “Cytotoxicity of AKR1Bs substrate” value (HT29 cells) was “more resistant” and the “Cytotoxicity of AKR1Bs substrate” value (SW480 cells) was “more resistant”. The “GSH level in the presence of 2DG” value (CaCo2 cells [5]; 2DG (20 mM) 48 h) was “decreased significantly”, the “GSH level in the presence of 2DG” value (HCT116 cells [6]; 2DG (20 mM) 48 h) was “decreased significantly” and the “GSH level in the presence of 2DG” value (HepG2 cells [7]; 2DG (20 mM) 48 h) was “decreased significantly”. For the same molecule, the “GSH level in the presence of 2DG” value (SKOV3 cells [8]; 2DG (20 mM) 48 h) was “decreased significantly”, the “Efficiency as substrate of AKR1B1 (rate of NADPH depletion)” value (AKR1B1 [9]) was “then 2DG” and the “Efficiency as substrate of AKR1B1 (rate of NADPH depletion)” value (AKR1B1 [9]; listed as 2 DG) was “worst substrate among the three”. For the same molecule, the “Efficiency as substrate of AKR1B10 (rate of NADPH depletion)” value (AKR1B10 [10]) was “then 2DG”, the “Efficiency as substrate of AKR1B10 (rate of NADPH depletion)” value (AKR1B10 [10]; listed as 2 DG) was “worst substrate among the three” and the “AKR1B1 activity, amount of NADPH (nmol) oxidized per min per mg of protein” value (AKR1B1 [11]) was 149 nmol/min/mg. The “AKR1B10 activity, amount of NADPH (nmol) oxidized per min per mg of protein” value (AKR1B10 [12]) was 87 nmol/min/mg and the Inhibition of glycolysis (glycolysis) was 15-40%.
